According to patent US9487490B2, “3-cyclohexenyl and cyclohexyl substituted indole and indazole compounds as RORgammaT inhibitors and uses thereof” (Merck Sharp & Dohme Corp., priority 2012, dated 2016):

What follows are compounds tested against human RORgammaT-Ligand Binding Domain (LBD) (Homo sapiens (Human), UniProt P51449) (assay: RORγ-Ligand Binding Domain TR-FRET assay (co-activator peptide SRC1_2 recruitment)). Conditions: Fret IC50 (nM), HIS-tagged RORγ-LBD 3 nM, biotinylated SRC1 LXXLL peptide 100 nM, incubated overnight at 4° C., 665 nm/615 nm signal quotient.
Type: biochemical
From the text: Activation of RORgammaT activity can be measured using, e.g., biochemical TR-FRET assay. In such an assay, interaction of cofactor-derived peptides with human RORgammaT-Ligand Binding Domain (LBD) can be measured.
To identify novel antagonists of RORgammaT, an assay was developed which employs the interaction of RORgammaT with its co-activator peptide SRC1_2. […] The RORγ-Ligand Binding Domain TR-FRET Assay was run according to the following protocol.
HIS-tagged RORγ-LBD protein was expressed in SF9 cells using a baculovirus expression system. The RORγ-LBD protein was purified by glutathione sepharose chromatography. Separately, SF9 cells not expressing any recombinant protein were lysed and the lysate was added to the purified RORγ-LBD at 0.25 μl lysate (from 10,000 SF9 cells)/nM purified protein. The mixture was then diluted in assay buffer (50 mM Tris pH 7.0, 50 mM KCl, 1 mM EDTA, 0.1 mM DTT) to obtain RORγ-LBD final concentration of 3 nM in 384-well assay plate.
Compounds to be tested were injected to the assay plate using Acoustic Droplet Ejection technology by Echo 550 liquid handler (Labcyte, Calif.).

Chain of human RORgammaT-Ligand Binding Domain (LBD) (P51449 269-508): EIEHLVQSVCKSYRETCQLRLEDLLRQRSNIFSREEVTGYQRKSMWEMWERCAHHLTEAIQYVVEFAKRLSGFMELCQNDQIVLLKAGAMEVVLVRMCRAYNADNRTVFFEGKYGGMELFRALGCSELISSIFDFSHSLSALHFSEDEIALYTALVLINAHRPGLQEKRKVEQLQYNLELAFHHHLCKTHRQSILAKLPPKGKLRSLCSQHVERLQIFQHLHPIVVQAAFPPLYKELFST

| Compound | IC50 |
| --- | --- |
| CC1(C)CC(c2nn(C(=O)c3c(Cl)cccc3C(F)(F)F)c3cccc(F)c23)=CCC1C(=O)O (racemic) [Example 10B, (R and S) 4-(1-(2-chloro-6-(trifluoromethyl)benzoyl)-4-fluoro-1H-indazol-3-yl)-6,6-dimethylcyclohex-3-enecarboxylic acid] | 96 nM |

Same assay, conditions: HIS-tagged RORγ-LBD 3 nM, biotinylated SRC1 LXXLL peptide 100 nM, incubated overnight at 4° C., 665 nm/615 nm signal quotient; read-out: Fret IC50

| Compound | IC50 |
| --- | --- |
| CN(C(=O)c1ccc2c(C3=CCC(C(=O)O)CC3)nn(C(=O)c3c(Cl)cccc3C(F)(F)F)c2c1)C1CC1 (stereo not drawn) [Example 4C, 4-(1-(2-chloro-6-(trifluoromethyl)benzoyl)-6-(cyclopropyl(methyl)carbamoyl)-1H-indazol-3-yl)cyclohex-3-enecarboxylic acid] | 9 nM |
| Cc1cccc(Cl)c1C(=O)n1nc(C2=CCC(C(=O)O)CC2)c2ncccc21 (stereo not drawn) [Example 1L, 4-(1-(2-chloro-6-methylbenzoyl)-1H-pyrazolo[4,3-b]pyridine-3-yl)cyclohex-3-enecarboxylic acid] | 123 nM |
| COC1CN(C(=O)c2ccc3c(C4=CC[C@@](C)(C(=O)O)CC4)nn(C(=O)c4c(Cl)cccc4C4CC4)c3c2)C1 (single isomer, unassigned) [Example 2D, (S or R)-4-(1-(2-chloro-6-cyclopropylbenzoyl)-6-(3-methoxyazetidine-1-carbonyl)-1H-indazol-3-yl)-1-methylcyclohex-3-enecarboxylic acid] | 5 nM |
| CN(C(=O)c1ccc2c(C3=CCC(C(=O)O)CC3)nn(C(=O)c3c(Cl)cccc3C(F)(F)F)c2c1)C1CCOCC1 (stereo not drawn) [Example 4P, 4-(1-(2-chloro-6-(trifluoromethyl)benzoyl)-6-(methyl(tetrahydro-2H-pyran-4-yl)carbamoyl)-1H-indazol-3-yl)cyclohex-3-enecarboxylic acid] | 41 nM |
| CN1CCN(C(=O)c2ccc3c(C4=CCC(C(=O)O)CC4)nn(C(=O)c4c(Cl)cccc4C(F)(F)F)c3c2)CC1=O (stereo not drawn) [Example 4N, 4-(1-(2-chloro-6-(trifluoromethyl)benzoyl)-6-(4-methyl-3-oxopiperazine-1-carbonyl)-1H-indazol-3-yl)cyclohex-3-enecarboxylic acid] | 3 nM |
| CN(CCO)C(=O)c1ccc2c(C3=CCC(C(=O)O)CC3)nn(C(=O)c3c(Cl)cccc3C(F)(F)F)c2c1 (stereo not drawn) [Example 4S, 4-(1-(2-chloro-6-(trifluoromethyl)benzoyl)-6-((2-hydroxyethyl)(methyl)carbamoyl)-1H-indazol-3-yl)cyclohex-3-enecarboxylic acid] | 40 nM |
| C[C@@H]1COCCN1C(=O)c1ccc2c(C3=CCC(C(=O)O)CC3)nn(C(=O)c3c(Cl)cccc3C(F)(F)F)c2c1 (stereo partly drawn) [Example 4Q, 4-(1-(2-chloro-6-(trifluoromethyl)benzoyl)-6-((R)-3-methylmorpholine-4-carbonyl)-1H-indazol-3-yl)cyclohex-3-enecarboxylic acid] | 380 nM |
| COC1CN(C(=O)c2ccc3c(C4=CCC(C(=O)O)CC4)nn(C(=O)c4c(Cl)cccc4C4CC4)c3c2)C1 (single isomer, unassigned) [Example 2A, (R or S)-4-(1-(2-chloro-6-cyclopropylbenzoyl)-6-(3-methoxyazetidine-1-carbonyl)-1H-indazol-3-yl)cyclohex-3-enecarboxylic acid] | 2 nM |
| CC1CC(C(=O)O)CC=C1c1nn(C(=O)c2c(Cl)cccc2C(F)(F)F)c2cccc(F)c12 (racemic) [Example 12A, 4-(1-(2-chloro-6-(trifluoromethyl)benzoyl)-4-fluoro-1H-indazol-3-yl)-5-methylcyclohex-3-enecarboxylic acid] | 54 nM |
| C[C@@H]1CN(C(=O)c2ccc3c(C4=CCC(C(=O)O)CC4)nn(C(=O)c4c(Cl)cccc4C(F)(F)F)c3c2)C[C@H](C)O1 (stereo partly drawn) [Example 4M, 4-(1-(2-chloro-6-(trifluoromethyl)benzoyl)-6-((2R,6S)-2,6-dimethylmorpholine-4-carbonyl)-1H-indazol-3-yl)cyclohex-3-enecarboxylic acid] | 21 nM |
| CC(C)N(C)C(=O)c1ccc2c(C3=CCC(C(=O)O)CC3)nn(C(=O)c3c(Cl)cccc3C(F)(F)F)c2c1 (stereo not drawn) [Example 4U, 4-(1-(2-chloro-6-(trifluoromethyl)benzoyl)-6-(isopropyl(methyl)carbamoyl)-1H-indazol-3-yl)cyclohex-3-enecarboxylic acid] | 164 nM |
| CC1(C(=O)O)CC=C(c2nn(C(=O)c3c(Cl)cccc3C(F)(F)F)c3cccnc23)CC1 (stereo not drawn) [Example 1F, 4-(1-(2-chloro-6-(trifluoromethyl)benzoyl)-1H-pyrazolo[4,3-b]pyridin-3-yl)-1-methylcyclohex-3-enecarboxylic acid] | 170 nM |
| O=C(O)C1CCC(O)(c2nn(C(=O)c3c(Cl)cccc3C(F)(F)F)c3cccc(F)c23)CC1 (stereo not drawn) [Example 13A, 4-(1-(2-chloro-6-(trifluoromethyl)benzoyl)-4-fluoro-1H-indazol-3-yl)-4-hydroxycyclohexanecarboxylic acid] | 2470 nM |
| CC1C=C(c2nn(C(=O)c3c(Cl)cccc3C(F)(F)F)c3cccnc23)CCC1C(=O)O (stereo not drawn) [Example 1G, 4-(1-(2-chloro-6-(trifluoromethyl)benzoyl)-1H-pyrazolo[4,3-b]pyridin-3-yl)-2-methylcyclohex-3-enecarboxylic acid] | 182 nM |
| O=C(c1c(Cl)cccc1C(F)(F)F)n1nc([C@H]2CC[C@H](C(=O)O)CC2)c2ncccc21 [Example 11A, (trans)-4-(1-(2-chloro-6-(trifluoromethyl)benzoyl)-1H-pyrazolo[4,3-b]pyridin-3-yl)cyclohexanecarboxylic acid] | 207 nM |
| COC1CN(C(=O)c2ccc3c(C4=CCC(C(=O)O)CC4)nn(C(=O)c4c(Cl)cccc4C4CC4)c3c2)C1 (single isomer, unassigned) [Example 2B, (S or R)-4-(1-(2-chloro-6-cyclopropylbenzoyl)-6-(3-methoxyazetidine-1-carbonyl)-1H-indazol-3-yl)cyclohex-3-enecarboxylic acid] | 2 nM |
| C[C@H]1CN(C(=O)c2ccc3c(C4=CCC(C(=O)O)CC4)nn(C(=O)c4c(Cl)cccc4C(F)(F)F)c3c2)CCO1 (stereo partly drawn) [Example 4R, 4-(1-(2-chloro-6-(trifluoromethyl)benzoyl)-6-((S)-2-methylmorpholine-4-carbonyl)-1H-indazol-3-yl)cyclohex-3-enecarboxylic acid] | 21 nM |
| O=C(O)C1CC=C(c2nn(C(=O)c3c(Cl)cccc3C(F)(F)F)c3cc(C(=O)N4CC(O)C4)ccc23)CC1 (stereo not drawn) [Example 4W, 4-(1-(2-chloro-6-(trifluoromethyl)benzoyl)-6-(3-hydroxyazetidine-1-carbonyl)-1H-indazol-3-yl)cyclohex-3-enecarboxylic acid] | 3 nM |
| O=C(O)C1CC=C(c2nn(C(=O)c3c(Cl)cccc3C(F)(F)F)c3cc(C(=O)N4CCCCC4)ccc23)CC1 (stereo not drawn) [Example 4Y, 4-(1-(2-chloro-6-(trifluoromethyl)benzoyl)-6-(piperidine-1-carbonyl)-1H-indazol-3-yl)cyclohex-3-enecarboxylic acid] | 159 nM |
| CC1(c2nn(C(=O)c3c(Cl)cccc3C(F)(F)F)c3cccc(F)c23)CCC(C(=O)O)CC1 (stereo not drawn) [Example 7A, 4-(1-(2-chloro-6-(trifluoromethyl)benzoyl)-4-fluoro-1H-indazol-3-yl)-4-methylcyclohexanecarboxylic acid] | 1880 nM |
| C[C@@H]1CCCN1C(=O)c1ccc2c(C3=CCC(C(=O)O)CC3)nn(C(=O)c3c(Cl)cccc3C(F)(F)F)c2c1 (stereo partly drawn) [Example 4H, 4-(1-(2-chloro-6-(trifluoromethyl)benzoyl)-6-((R)-2-methylpyrrolidine-1-carbonyl)-1H-indazol-3-yl)cyclohex-3-enecarboxylic acid] | 115 nM |
| C[C@]1(c2nn(C(=O)c3c(Cl)cccc3C(F)(F)F)c3cccc(F)c32)CC[C@H](C(=O)O)CC1 [Example 7B, (trans)-4-(1-(2-chloro-6-(trifluoromethyl)benzoyl)-4-fluoro-1H-indazol-3-yl)-4-methyl cyclohexanecarboxylic acid] | 663 nM |
| CC1CN(C(=O)c2ccc3c(C4=CCC(C(=O)O)CC4)nn(C(=O)c4c(Cl)cccc4C(F)(F)F)c3c2)CCO1 (stereo not drawn) [Example 4J, 4-(1-(2-chloro-6-(trifluoromethyl)benzoyl)-6-(2-methylmorpholine-4-carbonyl)-1H-indazol-3-yl)cyclohex-3-enecarboxylic acid] | 24 nM |
| CC(C)NC(=O)c1ccc2c(C3=CCC(C(=O)O)CC3)nn(C(=O)c3c(Cl)cccc3C(F)(F)F)c2c1 (stereo not drawn) [Example 4T, 4-(1-(2-chloro-6-(trifluoromethyl)benzoyl)-6-(isopropylcarbamoyl)-1H-indazol-3-yl)cyclohex-3-enecarboxylic acid] | 1120 nM |
| CC1(C(=O)O)CC=C(c2nn(C(=O)c3c(Cl)cccc3C(F)(F)F)c3cccc(Cl)c23)CC1 (stereo not drawn) [Example 1I, 4-(4-chloro-1-(2-chloro-6-(trifluoromethyl)benzoyl)-1H-indazol-3-yl)-1-methylcyclohex-3-enecarboxylic acid] | 14 nM |
| C[C@H]1CCCN1C(=O)c1ccc2c(C3=CCC(C(=O)O)CC3)nn(C(=O)c3c(Cl)cccc3C(F)(F)F)c2c1 (stereo partly drawn) [Example 4G, 4-(1-(2-chloro-6-(trifluoromethyl)benzoyl)-6-((S)-2-methylpyrrolidine-1-carbonyl)-1H-indazol-3-yl)cyclohex-3-enecarboxylic acid] | 6 nM |
